Results: patent US6835846B2, “Aliphatic compounds, process for their preparation and their usage” (Maruha Corporation, priority 2000, dated 2004)
Blank lines part the entries; values can stand above or below the compound they belong to.

How the values were obtained:
[1] = test system: endothelial cell-neutrophil interaction; assay: Anti-inflammatory tests using pseudo-blood vessel model (neutrophil transmigration and adhesion); type: cell-based, bovine; settings: for neutrophil transmigration and adhesion: 0.1 and 1 microM compound, 10 microM AHOP in lower compartment, FIG. 4
Description: Transwells were used, each consisting of an upper compartment separated from a lower compartment by a porous membrane. A single layer of bovine endothelial cells was cultured on the porous membrane at the bottom surface of the transwell upper compartment. A suspension of fluorescence-labeled neutrophils was added to the transwell upper compartment, and AHOP was suspended within the lower compartment to an end concentration of 0.1 to 10 microM. That is, a pseudo-blood vessel in vitro inflammation model was thus constructed in which the upper compartment and the lower compartment of the transwell were isolated from each other via the endothelial layer, and the upper compartment corresponded to the interior of a blood vessel, while the lower compartment corresponded to the site of inflammation outside the blood vessel. Measurements were made of the number of the neutrophils passing from the upper compartment into the lower compartment through the endothelial layer, and the number of the neutrophils adhering to the endothelial layer. […] That is, AHOP was considered to act as an inflammation-inducing substance.
That is, the compound of Example 2 or 3 was added in an amount of 0.01 to 1 microM to the upper compartment or lower compartment of the transwell, and 10 microM AHOP was placed in the lower compartment to induce inflammation. As a control, inflammation was induced in the same way as above but without addition of any compounds of the invention.
Measurements were made of the number of the neutrophils passing from the upper compartment into the lower compartment through the endothelial layer, and the number of the neutrophils adhering to the endothelial layer. A relative neutrophil count (%) was calculated from the following equation:
Relative neutrophil count (%)=[number of neutrophils (passing and adhering) in the experimental group]/[number of neutrophils (passing and adhering) in the control]×100

[2] = test system: cancer cell strain F10; settings: F10 cells; AHOP concentration of 10^−8 to 10^−6 M; maximum; cited from earlier work
[3] = test system: Edg receptors; assay: Competition experiments using ^3H-AHOP on HL60 cells; type: binding; settings: for competition with ^3H-AHOP: HL60 cells, ^3H-AHOP 1 nM, unlabeled compound 10 nM, 30 nM or 100 nM, 30 minutes at 4° C.; for inhibition of binding of ^3H-AHOP (to HL60 cells): compound 1 nM, 3 nM and 10 nM, FIG. 2
Description: The same premyeloblastoma cell strain HL60 expressing Edg receptors on the cell surface as used in Example 4 was used. The cells were harvested by centrifugation, then suspended in an F-12 culture medium (stored at 4° C., 10 ml), and carried into an RI laboratory. ^3H-AHOP (15 μCi/1 nM) at an end concentration of 1 nM, and an unlabeled compound (the compound of Example 2 or Example 3) at an end concentration of 10 nM, 30 nM or 100 nM were each added to 200 μl of the cell suspension (1×10^6 cells/ml F-12), and a binding test was conducted for 30 minutes at 4° C. (with occasional stirring). After centrifugation for 7 minutes at 12,000 rpm, the supernatant was rapidly (without damaging cell pellets) discarded with a micropipetter. The cell pellets were suspended in 1.5 ml of Ready Safe (Beckman), whereafter the suspension was transferred into a vial and measured for radioactivity by a liquid scintillation counter L2100 (Beckman).
The compounds of Example 2 and Example 3 were subjected to the same competition experiments as described above, except that they were added at concentrations of 1 nM, 3 nM and 10 nM.

[4] = test system: Edg receptor; assay: Edg receptor response test (intracellular Ca^2+ increase by AHOP in HL60 cells); type: cell-based; settings: for concentration at which the Ca^2+ concentration increase by AHOP was dose-dependently suppressed / increase in the intracellular Ca^2+ concentration by the addition of AHOP: HL60 cells; for concentration at which the Ca^2+ concentration increase by AHOP was dose-dependently suppressed: AHOP 1 μM, FIG. 1; for increase in the intracellular Ca^2+ concentration by the addition of AHOP: test substance 30 μM, then AHOP 1 μM
Excerpt: HL 60 cells were obtained from a cell bank, and subcultured for about 50 passages over a half-year period in accordance with the method described in BBRC '98, 263, p. 253 using an RPMI-1640 culture medium (Gibco) containing 10% fetal bovine serum to prepare a premyeloblastoma cell strain HL60 expressing Edg receptors on the cell surface. Using the premyeloblastoma cell strain HL60 expressing Edg receptors on the cell surface, the cell response of test substances was investigated. An increase in the intracellular Ca^2+ concentration was measured as an indicator of cell response. It is reported that when the Edg receptor on the HL60 cell surface is bound to AHOP, it phosphorylates G protein to activate IP3 kinase, whereafter the intracellular Ca^2+ concentration increases (FEBS Letter '96, 379, p. 260, BBRC '98, 253, p. 253). Thus, the intracellular Ca^2+ concentration serves as an indicator of Edg receptor response.
A Ca^2+ chelating reagent, Fura-2AM, was taken into HL60 cells.
A cell suspension (1.2 ml) was charged into a quartz cell, which was then mounted on a fluorometer LS50B (Perkin Elmer, for cell measurement). An excitation wavelength was alternately switched between 340 nm (exciting Fura-2 having chelated Ca^2+) and 380 nm (exciting unreacted Fura-2) at intervals of 0.5 milli second, and fluorescence intensity at 510 nm was measured.
Each test substance was added at an end concentration of 30 μM by means of a microsyringe, and then fluorescence intensity was traced to investigate whether Ca^2+ would increase or not. It was also confirmed whether Ca^2+ would increase or not when AHOP (1 μM) was added after addition of the test substance. Through these tests, the AHOP antagonism of each substance was studied.
Suramin, already confirmed to have antagonistic action, was used as a comparison. The experimental procedure was the same as described above, except that AHOP (1 μM) was added after addition of the test substance at varying concentration. An increase in the Ca^2+ concentration was evaluated by an increased Ca^2+ concentration (%) as a value relative to the increased Ca^2+ concentration in a negative control group (no drug added).

[5] = test system: vascular smooth muscle cells; assay: Action on vascular smooth muscle growth (BrdU assay); type: cell-based; settings: rat vascular smooth muscle cells, sphingosylphosphorylcholine 10 μM, 24 hours, FIG. 3
Description: Thus, the actions of the compounds of Examples 2 and 3 on the growth of vascular smooth muscle cells were measured in the manner described below. Suramin confirmed to have Edg receptor antagonism was used as a positive control.
The rat carotid intima was rubbed by ballooning, and a tissue fragment was cultured by explant culture. Two weeks later, vascular smooth muscle cells harvested were cultured in a DMEM culture medium (Gibco) containing 10% fetal bovine serum. The cultures were subcultured several times for stabilization, whereafter the subcultures were seeded at a cell density of 5×10^3 cells/cm^2 for use in experiments.
Along with the growth factor sphingosylphosphorylcholine (10 μM), the compound of Example 2 or 3, or suramin was added to the cells, and 24 hours later, the cell density was measured by BrdU assay (Science '82, 218, p. 474, Cytometry '85, 6, p. 584).

[6] = test system: myocardial infarction due to reperfusion following ligation of the rabbit coronary artery; assay: Ligation-associated myocardial infarction model; type: in vivo
Description: The compound of Example 2 was used as a test substance for investigating its effect on myocardial infarction due to reperfusion following ligation of the rabbit coronary artery. Male NZW rabbits (weighing 2.83 to 3.20 kg) were purchased from Kitayama Labes, Co. Ltd., and bred and raised under the conditions: room temperature 20-26° C., humidity 40-70%, and illumination time 12 hours/day (7-19:00). The animals were allowed food and water ad libitum, and quarantined and acclimatized for 2 weeks or more. Then, the animals in good health were used. The above rabbits were administered 10 mg/kg of the compound of Example 2 through the jugular vein under anesthesia, and then the compound of Example 2 was continuously infused in a dose of 6.9 micro g/kg/min. In a control group, physiological saline (hereinafter referred to as PS) was administered in the same manner as in the experimental group. Then, coronary artery was ligated for 30 minutes, whereafter the ligature was released for reperfusion, and the blood pressure in the carotid artery, the pulse rate and the number of arrhythmias were measured. The carotid arterial blood pressure and pulse rate were measured before administration, during continuous intravenous infusion, during the ligation period (15 minute later and 30 minutes later), and during reperfusion. The carotid arterial blood pressure was calculated as mean blood pressure. The number of arrhythmias was counted as the number of extrasystoles that appeared during the ligation period (for 30 minutes) or during reperfusion. After 3 hours of reperfusion, the heart was removed, and sliced into 6 pieces. The living tissues were stained with 2,3,5-triphenyltetrazolium […] (TTC), the area of the infarct due to ligation was measured, and the percent of the infarct with respect to the area of the left ventricle was calculated.

[7] = rabbit acute myocardial infarction models
[8] = rabbit, 10 mg/kg jugular vein then 6.9 micro g/kg/min infusion
[9] = rabbit, 10 mg/kg then 6.9 micro g/kg/min, ligation 15 min
[10] = rabbit, 10 mg/kg then 6.9 micro g/kg/min, ligation 30 min
[11] = rabbit, 10 mg/kg then 6.9 micro g/kg/min, reperfusion 180 min
[12] = rabbit, baseline before administration

Compound: CCCCCCCCCCCCCC=CC(O)C(N)COP(=O)(O)O (stereo not drawn) [AHOP, 2-amino-3-hydroxy-4-octadecene-1-phosphate, reference compound]
transmigration through the endothelial layer and adhesion of the neutrophils (inflammation-inducing action) ([1]; AHOP 10 microM in lower compartment): promoted significantly
suppression of migration [2]: ~80%

melting point: 52 to 57 °C
Compound: CCCCCCCCCCCCCCC(O)C(=O)N[C@@H](CO)[C@H](O)/C=C/CCCC(C)CCCCCCCCC (stereo partly drawn) [Example 3, (4E,2S,3R,2′RS)-N-2′-hydroxyhexadecanoyl-9-methyl-4-octadecene-1,3-diol]
competition with ^3H-AHOP [3]: competitive with ^3H-AHOP
inhibition of binding of ^3H-AHOP (to HL60 cells) [3]: Dose-dependent inhibition
neutrophil transmigration and adhesion [1]: suppressed
concentration at which the Ca^2+ concentration increase by AHOP was dose-dependently suppressed [4]: 0.3 to 3 µM
increase in the intracellular Ca^2+ concentration by the addition of AHOP [4]: inhibited
concentrations at which vascular smooth muscle growth was inhibited [5]: 1 to 10 µM

Compound: CCCCCCCCCCCCCC[C@H](O)C(=O)N[C@H](CO)[C@@H](O)/C=C/CC/C=C(\C)CCCCCCCCC [Example 2, (4E,8E,2R,3S,2′S)-N-2′-hydroxyhexadecanoyl-9-methyl-4.8-octadecadiene-1,3-diol]
competition with ^3H-AHOP [3]: competitive with ^3H-AHOP
inhibition of binding of ^3H-AHOP (to HL60 cells) [3]: Dose-dependent inhibition
neutrophil transmigration and adhesion [1]: suppressed
ligation-associated decrease in pulse rate (in words) [6, 7]: tended to inhibit
number of arrhythmias due to ligation (in words) [6, 7]: reduce the number of arrhythmias due to ligation
percent area of the infarct (in words) [6, 7]: tendency toward decreasing
Mean blood pressure, continued i.v. infusion [6, 8]: 74 ± 9 mmHg
Pulse rate, continued i.v. infusion [6, 8]: 283 ± 10 beats/min
Mean blood pressure, ligation 15 min [6, 9]: 59 ± 10 mmHg
Pulse rate, ligation 15 min [6, 9]: 270 ± 9 beats/min
Mean blood pressure, ligation 30 min [6, 10]: 66 ± 8 mmHg
Pulse rate, ligation 30 min [6, 10]: 282 ± 4 beats/min
Mean blood pressure, reperfusion 180 min [6, 11]: 68 ± 4 mmHg
Pulse rate, reperfusion 180 min [6, 11]: 256 ± 10 beats/min
Infarct/left ventricle (percent area of the infarct) ([6]; rabbit, after 3 hours of reperfusion, TTC staining): 14.0 ± 2.1%
Mean blood pressure, before administration [6, 12]: 83 ± 4 mmHg
Pulse rate, before administration [6, 12]: 301 ± 9 beats/min
number of arrhythmias, reperfusion ([6]; rabbit, extrasystoles during reperfusion): 17 ± 6
number of arrhythmias, ligation ([6]; rabbit, extrasystoles during the ligation period (30 minutes)): 12 ± 5
strength of the action in comparison with suramin (ED50) ([4]; ED50 for intracellular Ca^2+ increase): about 40 times
concentration at which the Ca^2+ concentration increase by AHOP was dose-dependently suppressed [4]: 0.03 to 0.3 µM
increase in the intracellular Ca^2+ concentration by the addition of AHOP [4]: inhibited
concentrations at which vascular smooth muscle growth was inhibited [5]: 0.3 to 3 µM

melting point: 62 to 63 °C
Compound: CCCCCCCCCCCCCC[C@H](O)C(=O)N[C@H](CO)[C@@H](O)/C=C/CC/C=C(\C)CCCCCCCCC [Example 1, (4E,8E,2R,3S,2′S)-N-2′-hydroxyhexadecanoyl-9-methyl-4,8-octadecadiene-1,3-diol]
